Results: patent US20250144187A1, “COMBINATION OF HYDROLASES AND ANTI-MICROORGANISM DRUGS AND USES THEREOF” (CENTRE FOR EYE AND VISION RESEARCH LIMITED, priority 2023, published 2025)

How the values were obtained:
[1] = test system: MRSA; experiment: High-throughput screening of 4989 compounds with human lysozyme; format: cell-based, Staphylococcus aureus; conditions: for MRSA Combination / MRSA Drug only: OD600 at 24-hour; for MRSA Combination: compound 2.5 μM + 1 mg/ml lysozyme; for MRSA Drug only: compound 2.5 μM without lysozyme; for MRSA Inhibition ratio (%): compound 2.5 μM + 1 mg/ml lysozyme relative to compound only
Description: 1) High-throughput screening. […] Specifically, these compounds were added into bacterial suspensions (1×10^6 CFU/ml) in the […] microliter plate, in which each well contained 50 μl of lysogeny broth (LB) medium with or without 1 mg/ml lysozyme. LB medium in the absence of bacteria served as background group. Then, the real-time growth curves of MRSA were monitored per hour and for 24 hours. Experiments were performed with the biological replicates. Fly analyzing the absorbance 600 nm (OD600) of bacterial culture at the time point of 24-hour, the inhibition ratio (%) was calculated according to (ODcontrol−ODsample)/(ODcontrol−ODbackground)×100%. Here, the relative and apparent inhibition ratios were figured out by using the absorbance of bacterial suspension only containing compound and that without any drug treatment as ODcontrol, respectively. The relative and apparent inhibition ratios indicated the combination effect and potential toxicity of compound in combination effect. Synergy effect was defined as the relative inhibition ratio of ≥90%.

[2] = test system: MRSE; experiment: as above; format: cell-based, Staphylococcus epidermis; conditions: for MRSE Combination / MRSE Drug only: OD600 at 24-hour; for MRSE Combination: compound 2.5 μM + 1 mg/ml lysozyme; for MRSE Drug only: compound 2.5 μM without lysozyme; for MRSE Inhibition ratio (%): compound 2.5 μM + 1 mg/ml lysozyme relative to compound only
[3] = test system: MRSA; experiment: High-throughput screening of 1953 FDA-approved compounds with human lysozyme; format: cell-based, Staphylococcus aureus; conditions: compound 25 μM + 1 mg/ml lysozyme, 24-hour
Description: (§1) 1) High-throughput screening. According to standard screening method [Zhong. […] Commun. 11, 523 (2020)], 1953 FDA-approved compounds from our drugs library at a fixed concentrations of 25 μM were screened against methicillin-resistant Staphylococcus aureus (MRSA) and Staphylococcus epidermis (a coagulase negative Staphylococci, MRSE), in combination with human lysozyme. Specifically, these compounds were added into bacterial suspensions (1×10^5 CFU/ml, in LB medium) in the absence or presence of 1 mg/ml lysozyme. LB medium without bacteria served as background group. Then, the real-time growth curvet of MRSA were monitored per hour and for 24 hours. Absorbance at 600 am (OD600) of bacterial culture at the time point of 24-hour was also measured. The inhibition ratio (%) was calculated as (ODcontrol−ODsample)/(ODcontrol−ODbackground)×100%. […] Herein, the relative and apparent inhibition ratios indicated the combination effect and potential toxicity of compound, respectively. Synergy effect was defined as the relative inhibition ratio of ≥90%. All assays were performed in triplicate.

[4] = test system: MRSE; experiment: as above; format: cell-based, Staphylococcus epidermis; conditions: compound 25 μM + 1 mg/ml lysozyme, 24-hour
Description: as §1

Compound	MRSA Combination [1]	MRSA Drug only [1]	MRSA Inhibition ratio (%) [1] [%]	MRSE Combination [2]	MRSE Drug only [2]	MRSE Inhibition ratio (%) [2] [%]	Growth inhibition ratio (mean ± SD, %) MRSA [3] [%]	Growth inhibition ratio (mean ± SD, %) MRSE [4] [%]
SCP1-IN-1	0.0766	0.1762	79.55	0.0698	0.1091	67.64		
CO/N=C(\C(=O)N[C@@H]1C(=O)N2C(C(=O)O)=C(CSc3nc(=O)c(=O)[nH]n3C)CS[C@H]12)c1csc(N)n1 [Ceftriaxone Sodium]							8.83 ± 1.45	34.56 ± 35.01
CC(=O)c1c(O)cc(O)c(C(C)=O)c1O [2,4-Diacetylphloroglucinol]	0.0588	0.2097	95.09	0.0686	0.09	54.87		
CCCCCCNC(=O)n1cc(F)c(=O)[nH]c1=O [Carmofur]							82.5 ± 7.73	78.06 ± 11.38
CCC(=O)c1ccc(O)cc1 [Paroxypropione]	0.0655	0.3624	95.34	0.0445	0.5254	101.37		
CCOC(=O)c1ccc(O)c(O)c1 [Ethyl 3,4-dihydroxybenzoate]	0.064	0.5805	97.54	0.0703	0.6328	96.68		
[H]/N=C(\N/C(=N/[H])NCCCCCCNC(=N)NC(=N)Nc1ccc(Cl)cc1)Nc1ccc(Cl)cc1 [Chlorhexidine 2HCl]							94.16 ± 0.25	12.3 ± 18.27
CO[C@@]12[C@H](COC(N)=O)C3=C(C(=O)C(C)=C(N)C3=O)N1C[C@@H]1N[C@@H]12 [Mitomycin C]							66.02 ± 45.26	39.12 ± 43.57
CC1(C)S[C@@H]2[C@H](NC(=O)Cc3ccccc3)C(=O)N2[C@H]1C(=O)O [Benzylpenicillin potassium]							48.39 ± 51.84	3.07 ± 4.93
CO[C@@]1(NC(=O)CSCC#N)C(=O)N2C(C(=O)O)=C(CSc3nnnn3C)CS[C@@H]21 [Cefmetazole sodium]							58.25 ± 13.23	6 ± 29.05
CO/N=C(\C(=O)N[C@@H]1C(=O)N2C(C(=O)O)=C(Cn3ccc(=N)n3CCO)CS[C@H]12)c1csc(N)n1.O=S(=O)(O)O [Cefoselis Sulfate]							40.55 ± 6.2	51.56 ± 10.39
C#Cc1cccc(Nc2nc3ccccc3nc2Nc2cccc(C#C)c2)c1.Cl.Cl [TD52 (dihydrochloride)]	0.0926	0.6512	93.07	0.1057	0.402			
CO[C@H]1/C=C/O[C@@]2(C)Oc3c(C)c(O)c4c(c3C2=O)C(=O)C=C(NC(=O)/C(C)=C\C=C\[C@H](C)[C@H](O)[C@@H](C)[C@@H](O)[C@@H](C)[C@H](OC(C)=O)[C@@H]1C)C4=O [Rifamycin S]	0.074	0.1545	77.78	0.0967	0.5935	91.58		
CNC[C@H](O)[C@@H](O)[C@H](O)[C@H](O)CO.Nc1nc(-n2cc(C(=O)O)c(=O)c3cc(F)c(N4CC(O)C4)c(Cl)c32)c(F)cc1F [Delafloxacin (meglumine)]	0.0629	0.177	90.56	0.0639	0.1374			
Sertaconazole (nitrate)	0.2603	0.593	61.38	0.079	0.4977	93.73		
